Results: patent US12473262B2, “Aryl hydrocarbon receptor activators” (Oregon State University, priority 2019, dated 2025)

Target: aryl hydrocarbon receptor (AhR) (Mus musculus (Mouse), UniProt P30561)
Assay: AhR ligand screening: AhRE-luciferase reporter in transfected Hepa1 cells
Assay type: cell-based
Settings: for Fold @ 1 nM: fold change of luciferase expression at 1 nM test compound relative to vehicle (0.1% DMSO); for Fold @ 100 nM: fold change of luciferase expression at 100 nM test compound relative to vehicle (0.1% DMSO); for Fold @ 10 uM: fold change of luciferase expression at 10 uM test compound relative to vehicle (0.1% DMSO); for Fold relative to benchmark @ 100 nM: luciferase expression at 100 nM test compound relative to 100 nM benchmark compound 11-cl-BBQ
Summary of the method: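 Values are fold luciferase induction relative to vehicle (0.1% DMSO), read by luminometry of lysates from Hepa1 cells carrying an AhRE-driven luciferase reporter. Cells were seeded at 1×10^4 per well, grown overnight and treated with compound before lysis.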

Sequence of aryl hydrocarbon receptor (AhR) (P30561 10-805): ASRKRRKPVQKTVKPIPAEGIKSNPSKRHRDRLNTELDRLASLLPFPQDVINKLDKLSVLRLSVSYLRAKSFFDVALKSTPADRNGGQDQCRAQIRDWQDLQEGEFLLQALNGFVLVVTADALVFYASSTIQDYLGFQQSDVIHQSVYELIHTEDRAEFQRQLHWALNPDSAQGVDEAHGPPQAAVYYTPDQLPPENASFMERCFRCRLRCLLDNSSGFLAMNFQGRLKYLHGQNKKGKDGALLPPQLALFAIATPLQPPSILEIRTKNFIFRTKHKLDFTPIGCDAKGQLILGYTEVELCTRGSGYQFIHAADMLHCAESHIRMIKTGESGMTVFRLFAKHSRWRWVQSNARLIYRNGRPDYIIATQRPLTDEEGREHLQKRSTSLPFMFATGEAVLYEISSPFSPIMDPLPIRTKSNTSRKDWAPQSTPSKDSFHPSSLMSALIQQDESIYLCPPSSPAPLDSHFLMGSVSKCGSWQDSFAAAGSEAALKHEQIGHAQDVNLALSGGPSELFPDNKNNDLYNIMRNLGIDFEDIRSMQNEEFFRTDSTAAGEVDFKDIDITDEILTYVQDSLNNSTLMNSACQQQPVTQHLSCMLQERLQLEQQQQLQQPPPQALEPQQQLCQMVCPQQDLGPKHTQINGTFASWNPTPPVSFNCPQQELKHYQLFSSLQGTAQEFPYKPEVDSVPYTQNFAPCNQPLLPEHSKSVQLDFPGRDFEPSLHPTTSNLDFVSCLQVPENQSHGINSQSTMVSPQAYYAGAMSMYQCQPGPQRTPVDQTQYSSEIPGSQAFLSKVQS
Sequence of aryl hydrocarbon receptor (AhR) (P53762 whole entry partner): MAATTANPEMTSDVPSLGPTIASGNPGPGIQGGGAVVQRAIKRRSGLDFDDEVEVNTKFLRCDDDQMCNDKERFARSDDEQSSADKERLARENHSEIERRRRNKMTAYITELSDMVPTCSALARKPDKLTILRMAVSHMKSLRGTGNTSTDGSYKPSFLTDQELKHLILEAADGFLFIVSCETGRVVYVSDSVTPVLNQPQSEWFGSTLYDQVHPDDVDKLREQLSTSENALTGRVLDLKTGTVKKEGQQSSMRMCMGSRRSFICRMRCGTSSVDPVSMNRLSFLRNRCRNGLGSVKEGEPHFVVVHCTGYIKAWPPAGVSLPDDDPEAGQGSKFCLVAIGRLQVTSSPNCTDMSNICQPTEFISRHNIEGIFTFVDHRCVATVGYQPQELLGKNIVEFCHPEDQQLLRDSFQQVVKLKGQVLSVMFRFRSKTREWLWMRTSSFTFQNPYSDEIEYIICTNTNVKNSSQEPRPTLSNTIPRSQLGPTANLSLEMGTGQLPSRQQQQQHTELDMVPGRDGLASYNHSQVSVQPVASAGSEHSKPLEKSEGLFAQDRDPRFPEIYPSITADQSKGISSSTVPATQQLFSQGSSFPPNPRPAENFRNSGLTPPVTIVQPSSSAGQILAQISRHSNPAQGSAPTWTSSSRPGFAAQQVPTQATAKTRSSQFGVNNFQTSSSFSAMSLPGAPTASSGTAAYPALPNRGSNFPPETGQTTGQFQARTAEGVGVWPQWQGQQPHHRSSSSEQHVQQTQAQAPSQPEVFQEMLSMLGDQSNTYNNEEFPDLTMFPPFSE

Structure (SMILES)	Fold @ 1 nM	Fold @ 100 nM	Fold @ 10 uM	Fold relative to benchmark @ 100 nM
O=C(c1ccccc1)n1c(-c2cccc3ccccc23)nc2cc(Br)ccc21 [Compound 691]	2 fold	26 fold	34 fold	1 fold
O=C(c1cccc2ccccc12)n1c(-c2ccccc2)nc2ccc(Cl)cc21 [Compound 491]	1 fold	1 fold	24 fold	0.03 fold
O=C(c1ccc(F)cc1F)n1c(-c2cccc3ccccc23)nc2cc(Cl)ccc21 [Compound 694]	2 fold	32 fold	35 fold	1.23 fold
COc1ccc(Cn2c(-c3cccc4ccccc34)nc3ccc(Cl)cc32)cc1 [Compound 853]	1 fold	1 fold	11 fold	0.03 fold
O=C(c1ccc(SC(F)(F)F)cc1)n1c(-c2cccc3ccccc23)nc2ccc(Cl)cc21 [Compound 687]	1 fold	28 fold	32 fold	1.08 fold
COC(=O)c1ccc2nc(-c3cccc4ccccc34)n(S(=O)(=O)c3ccc(Cl)cc3)c2c1 [Compound 1386]	1 fold	2 fold	6 fold	0.07 fold
O=C(c1ccc(C(F)(F)F)cc1)c1c[nH]c2ccc(Cl)cc12 [Compound 883]	1 fold	1 fold	2 fold	0.02 fold
COc1ccc(C(=O)n2c(-c3cccc(C(F)(F)F)c3)nc3cc(Cl)ccc32)cc1 [Compound 764]	1 fold	2 fold	20 fold	0.08 fold
O=C(c1ccc2nc(-c3cccc4ccccc34)n(S(=O)(=O)c3cccc(F)c3)c2c1)N1CCOCC1 [Compound 1357]	1 fold	1 fold	1 fold	0.03 fold
O=C(c1ccc(F)c(F)c1)n1c(-c2cccc3ccccc23)nc2cc(F)ccc21 [Compound 630]	1 fold	5 fold	9 fold	0.56 fold
O=C(c1ccc(F)c(F)c1)n1c(-c2cccc3c2CCCC3)nc2cc(Cl)ccc21 [Compound 779]	1 fold	1 fold	5 fold	0.04 fold
COC(=O)c1ccc2nc(-c3cccc4ccccc34)n(S(=O)(=O)c3ccc(C(F)(F)F)cc3)c2c1 [Compound 1402]	1 fold	2 fold	3 fold	0.07 fold
O=C1c2ccccc2-c2nc3ccc(Cl)cc3n21 [Compound 488, 4-chloro-1,8-diazatetracyclo[7.7.0.0^2,7.0^10,15]hexadeca-2,4,6,8,10,12,14-heptaen-16-one]	1 fold	1 fold	4 fold	0.03 fold
O=C(c1c[nH]c2ccc(Cl)cc12)C1CCCCC1 [Compound 895]	1 fold	1 fold	10 fold	0.02 fold
O=C(c1ccc2c(c1)nc(-c1cccc3ccccc13)n2S(=O)(=O)c1ccc(Cl)cc1)N1CCCCC1 [Compound 1366]	1 fold	1 fold	10 fold	0.03 fold
O=C(c1ccc(F)c(F)c1)n1c(-c2cccc3ccccc23)nc2ccc(Br)cc21 [Compound 690]	2 fold	22 fold	30 fold	0.85 fold
COc1ccc(C(=O)n2c(-c3cc4ccccc4s3)nc3cc(F)ccc32)cc1 [Compound 634]	1 fold	2 fold	22 fold	0.22 fold
O=C(c1cccc2ccccc12)n1ccc2cc(Cl)ccc21 [Compound 366]	1 fold	1 fold	11 fold	0.03 fold
O=C(c1ccc2c(c1)OCCO2)n1c(-c2cccc3ccccc23)nc2cc(Cl)ccc21 [Compound 851]	1 fold	21 fold	29 fold	0.84 fold
O=C(C1CCCCC1)n1c(-c2cc3ccccc3o2)nc2cc(Cl)ccc21 [Compound 859]	1 fold	12 fold	80 fold	0.41 fold

Structure (SMILES)	Fold @ 1 nM	Fold @ 100 nM	Fold @ 10 uM	Fold relative to benchmark @ 100 nM
Clc1ccc2nc(-c3cccc4ccccc34)n(Cc3ccncc3)c2c1 [Compound 877]	1 fold	3 fold	42 fold	0.06 fold
c1ccc2c(c1)Cn1c3ccccc3c3ccnc-2c31 [Compound 526]	2.7 fold	10 fold	28 fold	0.71 fold
O=C(c1cc2cc(Cl)ccc2o1)c1cccc2ccccc12 [Compound 406, (5-chlorobenzofuran-2-yl)(naphthalen-1-yl)methanone]	1 fold	1 fold	7.5 fold	0.03 fold
O=C(c1ccc(F)c(F)c1)n1c(-c2c3ccccc3cc3ccccc23)nc2ccc(Cl)cc21 [Compound 642]	1 fold	1 fold	27 fold	0.11 fold
O=C(C1CCCCC1)n1c(-c2cccc3ccccc23)nc2cc(Cl)ccc21 [Compound 866]	1 fold	34 fold	50 fold	1.17 fold
Fc1cccc(F)c1Cn1c(-c2cccc3ccccc23)nc2cc(Cl)ccc21 [Compound 871]	1 fold	1 fold	12 fold	0.02 fold
COc1ccc(C(=O)n2c(-c3cc4ccccc4s3)nc3ccc(F)cc32)cc1 [Compound 635]	1 fold	2 fold	24 fold	0.22 fold
Cc1ccc(S(=O)(=O)n2c(-c3cccc4ccccc34)nc3cc(Cl)ccc32)cc1 [Compound 527, 5-chloro-2-(naphthalen-1-yl)-1-tosyl-1H-benzo[d]imidazole]	1 fold	15 fold	36 fold	0.38 fold
COC(=O)c1ccc2nc(-c3cccc4ccccc34)n(Cc3ccc(Cl)cc3)c2c1 [Compound 1407]	1 fold	1 fold	9 fold	0.03 fold
O=C(c1ccc(F)c(F)c1)n1c(-c2cccc3ccccc23)nc2ccc(OC(F)(F)F)cc21 [Compound 700]	1 fold	16 fold	22 fold	0.62 fold
COC(=O)c1ccc2nc(-c3cccc4ccccc34)n(S(=O)(=O)c3ccc4ccccc4c3)c2c1 [Compound 1384]	1 fold	2 fold	13 fold	0.07 fold
O=C(c1ccc(F)c(F)c1)n1c(-c2ccnc3ccccc23)nc2cc(Cl)ccc21 [Compound 767]	1 fold	2 fold	23 fold	0.08 fold
O=C(c1ccc2nc(-c3cccc4ccccc34)n(Cc3ccc(F)c(F)c3)c2c1)N1CCOCC1 [Compound 1330]	1 fold	1 fold	1 fold	0.03 fold
O=C(c1cccc2ccccc12)c1c[nH]c2cc(Cl)ccc12 [Compound 433]	1 fold	1 fold	7 fold	0.03 fold
COc1ccc(-c2nc3cc(Cl)ccc3n2C(=O)c2ccc(F)c(F)c2)c2ccccc12 [Compound 645]	1 fold	1 fold	15 fold	0.11 fold
CN1CCN(C(=O)c2ccc3c(c2)nc(-c2cccc4ccccc24)n3S(=O)(=O)c2cccc(F)c2)CC1 [Compound 1392]	1 fold	1 fold	4 fold	0.03 fold
O=S(=O)(C1CC1)n1c(-c2cccc3ccccc23)nc2cc(Cl)ccc21 [Compound 783]	1 fold	1 fold	24 fold	0.03 fold
O=C(c1ccc2c(c1)nc(-c1cccc3ccccc13)n2S(=O)(=O)c1ccc2ccccc2c1)N1CCCCC1 [Compound 1340]	1 fold	1 fold	8 fold	0.03 fold
O=C(c1ccc(OC(F)(F)F)cc1)n1c(-c2cccc3ccccc23)nc2cc(Cl)ccc21 [Compound 696]	1 fold	22 fold	51 fold	0.85 fold
